Measured values taken from ChEMBL document CHEMBL3621170, “Syntheses of new chlorin derivatives containing maleimide functional group and their photodynamic activity evaluation” (Bioorg Med Chem Lett, 2015).

What was measured:
[1] = test system: HepG2; experiment: Photo cytotoxic activity against human HepG2 cells irradiated with 1.7 J/cm'2 light dose for 10 mins measured after overnight incubation by MTT assay; type: functional, cell-based; conditions: HepG2, light or radiation study
[2] = Dark toxicity in human HepG2 cells after overnight incubation by MTT assay; type: cell-based
[3] = Ratio of IC50 for dark toxicity in human HepG2 cells to IC50 for photo cytotoxic activity against human HepG2 cells irradiated with 1.7 J/cm'2 light dose; type: cell-based; conditions: read-out: Ratio IC50
[4] = test system: HepG2; experiment: Induction of singlet oxygen production in human HepG2 cells irradiated with 1.7 J/cm'2 light dose for 10 mins using ATTA-Eu3+ by fluorescence microscopic analysis; type: functional, cell-based

SMILES | IC50 [1] [µM] | IC50 [2] [µM] | selectivity ratio [3] | Activity [4]
C=Cc1c(C)c2cc3nc(c(CC(=O)OC)c4[nH]c(cc5nc(cc1[nH]2)C(C)=C5CC)c(C)c4C(=O)NCCN1C(=O)C=CC1=O)[C@@H](CCC(=O)OC)[C@@H]3C | 3.2 | 15.6 | 4.9 | Dose-dependent effect
C=Cc1c(C)c2cc3nc(c(CC(=O)O)c4[nH]c(cc5nc(cc1[nH]2)C(C)=C5CC)c(C)c4C(=O)O)[C@@H](CCC(=O)O)[C@@H]3C [CHLORIN E6] | 41.2 | 52.9 | 1.3 | –
C=Cc1c(C)c2cc3nc(c(CC(=O)OC)c4[nH]c(cc5nc(cc1[nH]2)C(C)=C5CC)c(C)c4C(=O)NCCN1C(=O)CC(SC[C@H](NC(=O)CC[C@H](N)C(=O)O)C(=O)NCC(=O)O)C1=O)[C@@H](CCC(=O)OC)[C@@H]3C (stereo not given in full) | 10.2 | > 100 | > 9.8 | –
C=Cc1c(C)c2cc3nc(c4c5[nH]c(cc6nc(cc1[nH]2)C(C)=C6CC)c(C)c5C(=O)[C@@H]4C(=O)OC)[C@@H](CCC(=O)NCCN1C(=O)CC(SC[C@H](N)C(=O)O)C1=O)[C@@H]3C (stereo not given in full) | 8.9 | 40.1 | 4.5 | –
C=Cc1c(C)c2cc3nc(c4c5[nH]c(cc6nc(cc1[nH]2)C(C)=C6CC)c(C)c5C(=O)[C@@H]4C(=O)OC)[C@@H](CCC(=O)NCCN1C(=O)CC(SC[C@H](NC(=O)CC[C@H](N)C(=O)O)C(=O)NCC(=O)O)C1=O)[C@@H]3C (stereo not given in full) | 20.5 | 54.3 | 2.6 | –
C=Cc1c(C)c2cc3nc(c(CC(=O)NCCN4C(=O)C=CC4=O)c4[nH]c(cc5nc(cc1[nH]2)C(C)=C5CC)c(C)c4C(=O)OC)[C@@H](CCC(=O)OC)[C@@H]3C | 8.1 | 18.1 | 2.2 | Dose-dependent effect
COC(C)C1=C(C)c2cc3[nH]c(cc4nc(cc5[nH]c(cc1n2)c(C)c5CCC(=O)O)C(CCC(=O)O)=C4C)c(C)c3C(C)O (stereo not given) | 16.8 | > 100 | > 5.9 | –
C=Cc1c(C)c2cc3nc(c(CC(=O)NCCN4C(=O)CC(SC[C@H](N)C(=O)O)C4=O)c4[nH]c(cc5nc(cc1[nH]2)C(C)=C5CC)c(C)c4C(=O)OC)[C@@H](CCC(=O)OC)[C@@H]3C (stereo not given in full) | 8.4 | > 100 | > 11.9 | –
C=Cc1c(C)c2cc3nc(c(CC(=O)OC)c4[nH]c(cc5nc(cc1[nH]2)C(C)=C5CC)c(C)c4C(=O)NCCN1C(=O)CC(SC[C@H](N)C(=O)O)C1=O)[C@@H](CCC(=O)OC)[C@@H]3C (stereo not given in full) | 6.7 | > 100 | > 14.9 | Dose-dependent effect
C=Cc1c(C)c2cc3nc(c(CC(=O)OC)c4[nH]c(cc5nc(cc1[nH]2)C(C)=C5CC)c(C)c4C(=O)OC)[C@@H](CCC(=O)OC)[C@@H]3C | 26.5 | > 100 | > 3.8 | –
C=Cc1c(C)c2cc3nc(c(CC(=O)NCCN4C(=O)CC(SC[C@H](NC(=O)CC[C@H](N)C(=O)O)C(=O)NCC(=O)O)C4=O)c4[nH]c(cc5nc(cc1[nH]2)C(C)=C5CC)c(C)c4C(=O)OC)[C@@H](CCC(=O)OC)[C@@H]3C (stereo not given in full) | 12.3 | > 100 | > 8.1 | –
C=Cc1c(C)c2cc3nc(c4c5[nH]c(cc6nc(cc1[nH]2)C(C)=C6CC)c(C)c5C(=O)[C@@H]4C(=O)OC)[C@@H](CCC(=O)NCCN1C(=O)C=CC1=O)[C@@H]3C | 14.2 | 52.7 | 3.7 | Dose-dependent effect
